# In publication PMC5378356, “Differential inhibition of activity, activation and gene expression of MMP-9 in THP-1 cells by azithromycin and minocycline versus bortezomib: A comparative study” (PLoS ONE, 2017):
# Target: T1, matrix metalloproteinase-9 (MMP-9, gelatinase B) (Homo sapiens, UniProt P14780)
# T1 construct: gene MMP9
# Experiment: fluorogenic DQ-gelatin degradation assay with active MMP-9; also gelatin zymography with compound in the incubation buffer
# Type: biochemical
# T1 sequence (P14780 107-707): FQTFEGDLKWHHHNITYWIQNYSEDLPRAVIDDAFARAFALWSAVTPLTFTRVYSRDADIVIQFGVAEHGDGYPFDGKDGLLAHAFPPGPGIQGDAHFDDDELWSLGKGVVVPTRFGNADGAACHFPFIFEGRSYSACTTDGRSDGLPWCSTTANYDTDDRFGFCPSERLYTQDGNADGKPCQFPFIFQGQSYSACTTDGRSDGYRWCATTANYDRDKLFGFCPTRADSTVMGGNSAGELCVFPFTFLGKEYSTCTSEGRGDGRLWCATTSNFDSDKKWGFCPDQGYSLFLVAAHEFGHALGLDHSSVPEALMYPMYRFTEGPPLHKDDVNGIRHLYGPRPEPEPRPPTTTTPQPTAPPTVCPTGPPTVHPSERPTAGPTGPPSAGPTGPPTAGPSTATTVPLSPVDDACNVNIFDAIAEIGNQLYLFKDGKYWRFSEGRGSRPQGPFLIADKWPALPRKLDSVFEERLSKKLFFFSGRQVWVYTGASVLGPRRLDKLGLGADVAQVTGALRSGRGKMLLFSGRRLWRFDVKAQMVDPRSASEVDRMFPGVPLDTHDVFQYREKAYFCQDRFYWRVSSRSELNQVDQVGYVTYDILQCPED
compound,measurement,value
CN(C)c1ccc(O)c2c1C[C@H]1C[C@H]3[C@H](N(C)C)C(O)=C(C(N)=O)C(=O)[C@@]3(O)C(O)=C1C2=O [minocycline],IC50,272 µM
